Calls of active or inactive are those of the source. The rule behind the calls is not given here.
Key:
[1] = target: T1, beta-catenin-B-cell lymphoma 9 protein complex (Homo sapiens, UniProt P35222); assay: Inhibition of full length beta-catenin (1 to 781 residues) (unknown origin) expressed in Escherichia coli BL21 (DE3)/N-terminal biotinylated human BCL9 HD2 (350 to 375 residues) protein-protein interaction assessed as inhibition constant incubated for 1 hr by Alphascreen assay
T1 sequence (P35222 whole entry): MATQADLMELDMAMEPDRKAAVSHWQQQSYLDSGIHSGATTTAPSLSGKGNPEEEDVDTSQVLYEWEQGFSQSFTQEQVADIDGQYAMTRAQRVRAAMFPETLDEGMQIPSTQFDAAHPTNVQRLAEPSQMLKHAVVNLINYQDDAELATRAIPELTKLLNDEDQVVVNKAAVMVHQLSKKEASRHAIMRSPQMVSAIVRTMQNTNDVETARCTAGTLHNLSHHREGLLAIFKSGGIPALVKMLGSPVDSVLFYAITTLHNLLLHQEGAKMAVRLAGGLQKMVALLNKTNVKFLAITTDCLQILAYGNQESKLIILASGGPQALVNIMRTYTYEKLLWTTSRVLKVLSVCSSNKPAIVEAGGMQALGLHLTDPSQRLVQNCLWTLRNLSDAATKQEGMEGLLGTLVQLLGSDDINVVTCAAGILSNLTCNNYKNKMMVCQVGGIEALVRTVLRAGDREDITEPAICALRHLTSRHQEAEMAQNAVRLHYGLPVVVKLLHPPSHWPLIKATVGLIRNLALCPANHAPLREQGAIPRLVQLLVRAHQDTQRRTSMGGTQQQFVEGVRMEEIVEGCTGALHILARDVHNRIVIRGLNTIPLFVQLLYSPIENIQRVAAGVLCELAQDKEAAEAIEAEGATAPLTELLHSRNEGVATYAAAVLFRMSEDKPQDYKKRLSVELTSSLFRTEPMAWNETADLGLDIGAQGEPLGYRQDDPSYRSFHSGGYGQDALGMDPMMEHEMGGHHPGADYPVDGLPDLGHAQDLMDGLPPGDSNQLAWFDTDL
T1 sequence (O00512 whole entry): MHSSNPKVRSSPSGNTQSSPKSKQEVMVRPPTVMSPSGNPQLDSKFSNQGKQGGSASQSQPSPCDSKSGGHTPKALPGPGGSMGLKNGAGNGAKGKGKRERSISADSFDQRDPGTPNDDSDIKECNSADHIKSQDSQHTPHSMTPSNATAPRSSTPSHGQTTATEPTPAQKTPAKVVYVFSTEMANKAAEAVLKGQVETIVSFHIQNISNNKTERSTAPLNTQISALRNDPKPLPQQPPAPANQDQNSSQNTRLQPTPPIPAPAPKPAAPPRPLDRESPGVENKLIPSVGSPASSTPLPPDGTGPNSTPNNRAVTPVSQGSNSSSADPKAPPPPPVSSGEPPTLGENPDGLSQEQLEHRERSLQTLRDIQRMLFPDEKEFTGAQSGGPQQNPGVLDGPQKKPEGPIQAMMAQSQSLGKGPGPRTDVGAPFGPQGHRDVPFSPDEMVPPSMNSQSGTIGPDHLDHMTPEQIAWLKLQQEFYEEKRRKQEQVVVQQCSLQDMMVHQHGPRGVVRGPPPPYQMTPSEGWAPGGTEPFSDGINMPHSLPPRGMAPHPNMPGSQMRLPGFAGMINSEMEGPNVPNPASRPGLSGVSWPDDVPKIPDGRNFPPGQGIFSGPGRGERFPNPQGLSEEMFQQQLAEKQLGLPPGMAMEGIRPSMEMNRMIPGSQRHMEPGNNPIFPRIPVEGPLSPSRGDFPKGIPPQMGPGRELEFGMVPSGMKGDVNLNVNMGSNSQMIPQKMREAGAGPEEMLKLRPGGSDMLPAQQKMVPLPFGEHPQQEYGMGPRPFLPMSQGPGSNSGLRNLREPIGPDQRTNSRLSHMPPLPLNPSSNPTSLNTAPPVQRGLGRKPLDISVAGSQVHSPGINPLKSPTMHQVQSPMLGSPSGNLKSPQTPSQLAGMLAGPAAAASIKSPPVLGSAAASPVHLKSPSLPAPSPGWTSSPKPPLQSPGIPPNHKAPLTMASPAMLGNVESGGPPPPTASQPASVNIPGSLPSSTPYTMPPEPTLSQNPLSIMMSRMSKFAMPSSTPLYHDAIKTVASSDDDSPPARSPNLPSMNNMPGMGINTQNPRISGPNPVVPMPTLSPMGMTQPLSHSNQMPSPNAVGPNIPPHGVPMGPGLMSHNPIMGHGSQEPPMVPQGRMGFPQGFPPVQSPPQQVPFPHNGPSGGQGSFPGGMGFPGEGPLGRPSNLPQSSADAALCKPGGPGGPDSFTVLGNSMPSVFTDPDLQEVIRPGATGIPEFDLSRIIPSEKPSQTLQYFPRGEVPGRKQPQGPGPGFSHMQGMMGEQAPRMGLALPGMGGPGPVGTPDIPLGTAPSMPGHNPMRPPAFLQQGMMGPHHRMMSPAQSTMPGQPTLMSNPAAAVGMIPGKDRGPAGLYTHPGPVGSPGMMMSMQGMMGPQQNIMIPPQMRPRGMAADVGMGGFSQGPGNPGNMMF

[2] = target: T1, beta-catenin-B-cell lymphoma 9 protein complex; assay: Inhibition of full length beta-catenin (1 to 781 residues) (unknown origin) expressed in Escherichia coli BL21 (DE3)/N-terminal biotinylated human BCL9 HD2 (350 to 375 residues) protein-protein interaction incubated for 1 hr by Alphascreen assay
[3] = target: T2, beta-catenin-B-cell lymphoma 9 protein complex (Homo sapiens) (UniProt P35222+O00512); assay: Inhibition of full length wild type beta-catenin/N-terminal biotinylated human BCL9 HD2 (350 to 375 residues) protein-protein interaction in human SW480 cells at 1 to 10 uM incubated for 3 hr by immunoblot based pull-down assay; assay type: cell-based; conditions: dose 1-10 µM
SW480 [4] = assay: Inhibition of full length beta-catenin D145A mutant/N-terminal biotinylated human BCL9 HD2 (350 to 375 residues) protein-protein interaction in human SW480 cells at 1 to 10 uM incubated for 3 hr by immunoblot based pull-down assay; assay type: cell-based; conditions: dose 1-10 µM
SW480 [5] = assay: Inhibition of full length beta-catenin E155A mutant/N-terminal biotinylated human BCL9 HD2 (350 to 375 residues) protein-protein interaction in human SW480 cells at 1 to 10 uM incubated for 3 hr by immunoblot based pull-down assay; assay type: cell-based; conditions: dose 1-10 µM
SW480 [6] = assay: Inhibition of Wnt/beta-catenin signaling pathway in human SW480 cells assessed as reduction in Axin2 level at 1 to 12.5 uM incubated for 24 hrs by western blot analysis; assay type: cell-based; conditions: dose 1-12.5 µM
SW480 [7] = assay: Inhibition of Wnt/beta-catenin signaling pathway in human SW480 cells assessed as reduction in BCL9L level at 12.5 uM incubated for 24 hrs by qRT-PCR analysis (reference value: 100%); assay type: cell-based; conditions: values are per cent of control
[8] = target: Catenin beta-1/Cadherin-1 (Homo sapiens) (UniProt P35222+P12830); assay: Inhibition of beta-catenin/E-cadherin protein-protein interaction in human HCT-116 cells at 1 to 12.5 uM incubated for 24 hr by Co-immunoprecipitation assay; assay type: cell-based; conditions: dose 1-12.5 µM
SW480 [9] = assay: Inhibition of Wnt/beta-catenin signaling pathway in human SW480 cells assessed as reduction in Axin2 level at 12.5 uM incubated for 24 hrs by qRT-PCR analysis (reference value: 100%); assay type: cell-based; conditions: values are per cent of control
[10] = target: T2, beta-catenin-B-cell lymphoma 9 protein complex (Homo sapiens); assay: Inhibition of beta-catenin/BCL9 protein-protein interaction in human HCT-116 cells at 1 to 12.5 uM incubated for 24 hr by Co-immunoprecipitation assay; assay type: cell-based; conditions: dose 1-12.5 µM
SW480 [11] = assay: Inhibition of Wnt/beta-catenin transactivation signalling in human SW480 cells transfected with renilla luciferase and FOPFlash reporter gene at 3.125 uM incubated for 24 hrs by dual-luciferase assay (reference value: 100%); assay type: cell-based; conditions: values are per cent of control
SW480 [12] = assay: Inhibition of Wnt/beta-catenin transactivation signalling in human SW480 cells transfected with renilla luciferase and FOPFlash reporter gene at 6.25 uM incubated for 24 hrs by dual-luciferase assay (reference value: 100%); assay type: cell-based; conditions: values are per cent of control
SW480 [13] = assay: Inhibition of Wnt/beta-catenin transactivation signalling in human SW480 cells transfected with renilla luciferase and FOPFlash reporter gene at 1.56 uM incubated for 24 hrs by dual-luciferase assay (reference value: 100%); assay type: cell-based; conditions: values are per cent of control
Homo sapiens [14] = organism: Homo sapiens; assay: Selectivity ratio, ratio of IC50 for inhibition of Wnt/beta-catenin transactivation signalling in human HEK293 cells transfected with TOPFlash reporter gene to IC50 for inhibition of Wnt/beta-catenin D145A/E155A mutant transactivation signalling in human HEK293 cells transfected with TOPFlash reporter gene; assay type: cell-based
SW480 [15] = assay: Inhibition of Wnt/beta-catenin signaling pathway in human SW480 cells assessed as reduction in MMP7 level at 12.5 uM incubated for 24 hrs by qRT-PCR analysis (reference value: 100%); assay type: cell-based; conditions: values are per cent of control
SW480 [16] = assay: Inhibition of Wnt/beta-catenin signaling pathway in human SW480 cells assessed as reduction in HPRT level at 12.5 uM incubated for 24 hrs by qRT-PCR analysis (reference value: 100%); assay type: cell-based; conditions: values are per cent of control
Homo sapiens [17] = organism: Homo sapiens; assay: Selectivity ratio, ratio of Ki for inhibition of full length beta-catenin (1 to 781 residues) (unknown origin) expressed in Escherichia coli BL21 (DE3)/N-terminal biotinylated human BCL9 HD2 (350 to 375 residues) protein-protein interaction to Ki for inhibition of full length beta-catenin (1 to 686 residues) (unknown origin) expressed in Escherichia coli BL21 (DE3)/N-terminal biotinylated human E-cadherin (824 to 877 residues) protein-protein interaction

Chain of Catenin beta-1/Cadherin-1 (Homo sapiens) (P12830 155-882 partner limits assumed, one chain of several): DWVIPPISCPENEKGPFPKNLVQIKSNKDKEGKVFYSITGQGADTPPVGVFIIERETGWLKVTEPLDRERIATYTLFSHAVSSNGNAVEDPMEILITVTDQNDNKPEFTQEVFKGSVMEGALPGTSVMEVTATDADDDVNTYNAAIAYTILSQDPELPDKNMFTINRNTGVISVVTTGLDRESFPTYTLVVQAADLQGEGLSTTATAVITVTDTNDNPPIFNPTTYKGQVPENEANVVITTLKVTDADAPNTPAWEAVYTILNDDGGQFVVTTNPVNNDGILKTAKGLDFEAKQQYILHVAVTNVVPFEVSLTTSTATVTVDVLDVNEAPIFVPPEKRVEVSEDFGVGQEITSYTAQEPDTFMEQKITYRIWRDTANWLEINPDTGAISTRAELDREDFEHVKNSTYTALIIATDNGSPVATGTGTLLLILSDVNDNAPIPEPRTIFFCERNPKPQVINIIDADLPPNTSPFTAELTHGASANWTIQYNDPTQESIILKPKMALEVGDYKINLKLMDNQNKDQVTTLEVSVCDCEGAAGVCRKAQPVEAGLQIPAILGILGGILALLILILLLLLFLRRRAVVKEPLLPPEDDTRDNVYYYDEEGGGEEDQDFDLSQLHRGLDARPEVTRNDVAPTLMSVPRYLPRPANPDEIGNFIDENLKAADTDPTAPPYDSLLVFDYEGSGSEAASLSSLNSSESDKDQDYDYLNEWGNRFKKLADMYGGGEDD

SMILES | Ki [1] | IC50 [2] | further results
CC(C)(C)C1CCC(c2cc(C(=O)N3CCC(Oc4cc(N5CCNCC5)ccc4Cl)CC3)ccc2O[C@H]2CCNC2)CC1 (mixture of isomers) | 2.2 µM | 2.7 µM | –
CC(C)(C)C1CCC(c2cc(C(=O)N3CCC(Oc4cc(N5CCNCC5)cc(F)c4F)CC3)ccc2O[C@H]2CCNC2)CC1 (mixture of isomers) | 3.1 µM | 3.7 µM | –
CN(C)C(=O)c1ccc(N2CCNCC2)cc1OC1CCN(C(=O)c2ccc(O[C@H]3CCNC3)c(C3CCC(C(C)(C)C)CC3)c2)CC1 (mixture of isomers) | > 84 µM | > 100 µM | –
CC(C)(C)C1CCC(c2cc(C(=O)N3CCC(Oc4ccc(F)c(N5CCNCC5)c4)CC3)ccc2O[C@H]2CCNC2)CC1 (mixture of isomers) | 5.6 µM | 6.7 µM | –
COC(=O)c1ccc(N2CCNCC2)cc1OC1CCN(C(=O)c2ccc(O[C@H]3CCNC3)c(C3CCC(C(C)(C)C)CC3)c2)CC1 (mixture of isomers) | 14 µM | 17 µM | –
CC(C)(C)C1CCC(c2cc(C(=O)N3CCC(Oc4cccc(N5CCNCC5)c4)CC3)ccc2O[C@H]2CCNC2)CC1 (mixture of isomers) | 17 µM | 20 µM | –
CNC(=O)c1ccc(N2CCNCC2)cc1OC1CCN(C(=O)c2ccc(O[C@H]3CCNC3)c(C3CCC(C(C)(C)C)CC3)c2)CC1 (mixture of isomers) | 38 µM | 47 µM | –
CC(C)(C)C1CCC(c2cc(C(=O)N3CCC(Oc4cc(N5CCNCC5)ccc4C(N)=O)CC3)ccc2O[C@H]2CCNC2)CC1 (mixture of isomers) | 16 µM | 20 µM | –
CC(C)(C)C1CCC(c2cc(C(=O)N3CCC(Oc4cc(N5CCNCC5)ccc4C#N)CC3)ccc2O[C@@H]2CNC[C@H]2OCCOCCOCCNC(=O)CCCC[C@@H]2SC[C@@H]3NC(=O)N[C@@H]32)CC1 (mixture of isomers) | – | – | inhibition [3]: Active; inhibition (SW480 [4]): inactive; inhibition (SW480 [5]): inactive
CC(C)(C)C1CCC(c2cc(C(=O)N3CCC(Oc4cc(N5CCNCC5)ccc4C#N)CC3)ccc2O[C@H]2CCNC2)CC1 (mixture of isomers; 36) | 1.2 µM | 1.5 µM | –
CC(C)(C)C1CCC(c2cc(C(=O)N3CCC(Oc4cc(N5CCNCC5)ccc4C#N)CC3)ccc2O[C@H]2CCNC2)CC1 (mixture of isomers; 44) | 2.7 µM | 3.3 µM | –
CC(C)(C)C1CCC(c2cc(C(=O)N3CCC(Oc4cc(N5CCNCC5)ccc4C#N)CC3)ccc2O[C@H]2CCNC2)CC1 (mixture of isomers; cis) | – | – | inhibition (SW480 [6]): Active; response, % of control (SW480 [7]): 18.6%; inhibition [8]: inactive; response, % of control (SW480 [9]): 9.28%; inhibition [10]: Active; residual activity (SW480 [11]): 104%; residual activity (SW480 [12]): 96.5%; residual activity (SW480 [13]): 100%; Ratio IC50 (Homo sapiens [14]): 4.2; response, % of control (SW480 [15]): 41.8%; response, % of control (SW480 [16]): 99.6%; Ratio Ki (Homo sapiens [17]): 20
